Consider seven compounds from ChEMBL document CHEMBL1126465, “Synthesis and pharmacological evaluation of nonacyclic and trisdecacyclic pyrazines related to cephalostatin” (1992).

Assay [1] has as its system MCF7. Nature of the assay: In vitro cytotoxicity against human breast carcinoma cell line MCF-7. The format is functional. As to conditions: read-out: ED50 (the source's name).
Assay [2] relates to Malme-3M. Nature of the assay: In vitro cytotoxicity against human melanoma, metastatic to lung using MTT assay (MALME-3M). Format: functional. As to conditions: read-out: ED50 (the source's name).
The test system of assay [3] is SK-MEL-5. Nature of the assay: In vitro cytotoxicity against human melanoma, metastatic to auxiliary node (SK-MEL-5). The format is functional. The note with it: read-out: ED50 (the source's name).
Assay [4] deals with HT-29. Nature of the assay: In vitro cytotoxicity against human colon adenocarcinoma cell line HT-29. The format is functional. The note with it: read-out: ED50 (the source's name).
Assay [5] has as its system A549. As to the kind of experiment: In vitro cytotoxicity against human lung carcinoma cell line A-549. As to conditions: read-out: ED50 (the source's name). The format is functional.
The test system of assay [6] is MCF7. Nature of the assay: In vitro cytotoxicity against human breast carcinoma cell line MCF-7 at 4.4*10e-5M. Format: functional. The note with it: MCF7, read-out: ED50.
In assay [7] the test system is SK-MEL-5. Nature of the assay: In vitro cytotoxicity against human melanoma, metastatic to auxiliary node (SK-MEL-5) at 5.1*10e-5M. Format: functional. As to conditions: SK-MEL-5, read-out: ED50.
Assay [8] concerns Malme-3M. As to the kind of experiment: In vitro cytotoxicity against human melanoma, metastatic to lung using MTT assay (MALME-3M) at 6.8*10e-5M. The format is functional.
Assay [9] concerns A549. As to the kind of experiment: In vitro cytotoxicity against human lung carcinoma cell line A-549 at 3.6*10e-5 M. The format is functional. As to conditions: A549, read-out: ED50.
Assay [10] deals with HT-29. Nature of the assay: In vitro cytotoxicity against human colon adenocarcinoma cell line HT-29 at 5.7*10e-5M. Format: functional. The note with it: HT-29, read-out: ED50.
Assay [11] deals with Malme-3M. Nature of the assay: In vitro cytotoxicity against human melanoma, metastatic to lung using MTT assay (MALME-3M) at 5.5*10e-5M. Format: functional. The note with it: read-out: ED50 (the source's name).
The subject of assay [12] is SK-MEL-5. Nature of the assay: In vitro cytotoxicity against human melanoma, metastatic to auxiliary node (SK-MEL-5) at 3.2*10e-5M. Format: functional. The note with it: read-out: ED50 (the source's name).
The subject of assay [13] is HT-29. As to the kind of experiment: In vitro cytotoxicity against human colon adenocarcinoma cell line HT-29 at 3.0*10e-5 M. Format: functional. The note with it: read-out: ED50 (the source's name).
For assay [14], the species on record is Mus musculus. Nature of the assay: Maximum tolerated dose (MTD) was reported. The format is functional.
Assay [15] concerns NRK. As to the kind of experiment: In vitro cytotoxicity expressed as % cell kill against rat transformed cell line K/1-NRK at a dose of 3.3 uM. Format: functional.
The subject of assay [16] is NRK. Nature of the assay: In vitro cytotoxicity expressed as % cell kill against rat transformed cell line H/1/2-NRK at a dose of 3.3 uM. The format is functional.
Assay [17] relates to NRK. As to the kind of experiment: In vitro cytotoxicity expressed as % cell kill against ras transformed cell line K/1-NRK at a dose of 33 uM. Format: functional, Rattus norvegicus.
The test system of assay [18] is Mus musculus. As to the kind of experiment: Percent inhibition was determined against K/1-NRK tumor at a dose of 75 mg/kg/day in mice. Format: functional.
Assay [19] has as its system Mus musculus. Nature of the assay: Percent inhibition was determined against H/1/2-NRK tumor at a dose of 150 mg/kg/day in mice. Format: functional.
Assay [20] relates to SK-MEL-5. As to the kind of experiment: In vitro cytotoxicity against human melanoma, metastatic to auxiliary node (SK-MEL-5) at 6.3*10e-5M. The format is functional. The note with it: read-out: ED50 (the source's name).
The subject of assay [21] is NRKE. Nature of the assay: In vitro cytotoxicity expressed as % cell kill against normal rat kidney epithelial cell (NRKE) at a dose of 33 uM. The format is functional.
In assay [22] the test system is NRKE. Nature of the assay: In vitro cytotoxicity expressed as % cell kill against normal rat kidney epithelial cell (NRKE) at a dose of 3.3 uM. The format is functional.
In assay [23] the test system is MCF7. As to the kind of experiment: In vitro cytotoxicity against human breast carcinoma cell line MCF-7 at 4.9*10e-5M. The format is functional. The note with it: read-out: ED50 (the source's name).
For assay [24], the system named is Mus musculus. Nature of the assay: Percent inhibition was determined against K/1-NRK tumor at a dose of 150 mg/kg/day in mice. The format is functional.
Assay [25] deals with NRK. As to the kind of experiment: In vitro cytotoxicity expressed as % cell kill against rat transformed cell line H/1/2-NRK at a dose of 33 uM. The format is functional.
Assay [26] deals with A549. Nature of the assay: In vitro cytotoxicity against human lung carcinoma cell line A-549 at 6.1*10e-5 M. The format is functional. The note with it: read-out: ED50 (the source's name).
Assay [27] deals with HT-29. As to the kind of experiment: In vitro cytotoxicity against human colon adenocarcinoma cell line HT-29 at 1.2*10e-5M. As to conditions: read-out: ED50 (the source's name). Format: functional.
Assay [28] relates to A549. As to the kind of experiment: In vitro cytotoxicity against human lung carcinoma cell line A-549 at 7.4*10e-5 M. Format: functional. The note with it: read-out: ED50 (the source's name).
Assay [29] deals with HT-29. Nature of the assay: In vitro cytotoxicity against human colon adenocarcinoma cell line HT-29 at 1.6*10e-5M. As to conditions: read-out: ED50 (the source's name). The format is functional.
Assay [30] concerns MCF7. Nature of the assay: In vitro cytotoxicity against human breast carcinoma cell line MCF-7 at 8.1*10e-5M. As to conditions: read-out: ED50 (the source's name). Format: functional.
Assay [31] relates to SK-MEL-5. Nature of the assay: In vitro cytotoxicity against human melanoma, metastatic to auxiliary node (SK-MEL-5) at 2.6*10e-5M. Format: functional. The note with it: read-out: ED50 (the source's name).
Assay [32] deals with A549. As to the kind of experiment: In vitro cytotoxicity against human lung carcinoma cell line A-549 at 5.0*10e-5M. The note with it: read-out: ED50 (the source's name). The format is functional.
For assay [33], the system named is Malme-3M. Nature of the assay: In vitro cytotoxicity against human melanoma, metastatic to lung using MTT assay (MALME-3M) at 4.7*10e-5M. The format is functional. The note with it: read-out: ED50 (the source's name).
For assay [34], the system named is HT-29. As to the kind of experiment: In vitro cytotoxicity against human colon adenocarcinoma cell line HT-29 at 5.9*10e-5M. Format: functional. As to conditions: read-out: ED50 (the source's name).
The subject of assay [35] is MCF7. As to the kind of experiment: In vitro cytotoxicity against human breast carcinoma cell line MCF-7 at 5.6*10e-5M. The format is functional. The note with it: read-out: ED50 (the source's name).
The next assay concerns P388. As to the kind of experiment: In vitro cytotoxicity against P388 cell line; 10e-7-10e-9 ug/mL. The format is functional. The note with it: Mus musculus, read-out: ED50 (the source's name).

Converted amounts (≈) assume the structure as drawn.

As for `CCCCCCCC[C@H]1CC[C@@]2(C)C3CC[C@@]4(C)Cc5nc6c(nc5C[C@]4(C)[C@@]3(C)CC[C@]12C)C[C@]1(C)CCC2[C@](C)(CC[C@]3(C)[C@@H](CCCCCCCC)CC[C@@]23C)[C@@]1(C)C6` (stereo partly specified), the EC50 with MCF7 [1], with Malme-3M [2], with SK-MEL-5 [3], in the assay with HT-29 [4] and in the assay on A549 [5] was > 100 µg/mL throughout.
Regarding `C[C@@]12CCC3[C@](C)(CC[C@]4(C)[C@@H](O)CC[C@@]34C)[C@@]1(C)Cc1nc3c(nc1C2)C(N=[N+]=[N-])[C@@]1(C)[C@@H](CCC2[C@]1(C)CC[C@]1(C)[C@@H](O)CC[C@@]21C)C3` (stereo partly specified), the EC50 in the assay on MCF7 [6] is 27 µg/mL (≈ 39.5 µM); in the assay with SK-MEL-5 [7] it was 31 µg/mL (≈ 45.3 µM); in the assay on Malme-3M [8] (read-out: ED50) it was 42 µg/mL (≈ 61.4 µM); in the assay with A549 [9] it was 22 µg/mL (≈ 32.2 µM); with HT-29 [10] it was 35 µg/mL (≈ 51.2 µM).
As for `C[C@H]1CC[C@@]2(OC1)O[C@H]1C[C@@]3(C)C4CC[C@@]5(C)Cc6nc7c(nc6C[C@]5(C)C4=C(O)C(=O)[C@]3(C)[C@H]1[C@@H]2C)C[C@]1(C)CCC2C(=C(O)C(=O)[C@]3(C)[C@@H]4[C@H](C[C@@]23C)O[C@]2(CC[C@H](C)CO2)[C@H]4C)[C@@]1(C)C7` (stereo partly specified), the EC50 is > 100 µg/mL with MCF7 [1]; 53 µg/mL (≈ 56.8 µM) in the assay with Malme-3M [11]; 28 µg/mL (≈ 30 µM) with SK-MEL-5 [12]; 26 µg/mL (≈ 27.9 µM) with HT-29 [13]; > 100 µg/mL with A549 [5].
The compound `C[C@@]12CCC3[C@](C)(CC[C@]4(C)[C@@H](O)CC[C@@]34C)[C@@]1(C)Cc1nc3c(nc1C2)C[C@@]1(C)[C@@](C)(CCC2[C@]1(C)CC[C@]1(C)[C@@H](O)CC[C@@]21C)C3` (stereo partly specified) had an MTD in the assay listed under Mus musculus [14] of 150 mg/kg/day. For the same compound, the Cell kill in the assay on NRK [15], in the assay with NRK [16], with NRK [17], in the assay with NRKE [21], with NRKE [22] and with NRK [25] was 100% each time. Also, the inhibition in vivo at 75 mg/kg/day in the assay on Mus musculus [18] came out at 28%. The inhibition in vivo at 150 mg/kg/day in the assay with Mus musculus [19] amounted to 59%; in the assay on Mus musculus [24], 51%. Besides, the EC50 amounted to 36 µg/mL (≈ 54.8 µM) in the assay on SK-MEL-5 [20]; 28 µg/mL (≈ 42.6 µM) with MCF7 [23]; 39 µg/mL (≈ 59.4 µM) with Malme-3M [8] (read-out: ED50 (the source's name)); 35 µg/mL (≈ 53.3 µM) with A549 [26]; 7 µg/mL (≈ 10.7 µM) in the assay with HT-29 [27].
With `C[C@@]12CCC3[C@](C)(CC[C@]4(C)C(=O)CC[C@@]34C)[C@@]1(C)Cc1nc3c(nc1C2)C[C@@]1(C)[C@@](C)(CCC2[C@]1(C)CC[C@]1(C)C(=O)CC[C@@]21C)C3` (stereo partly specified), the EC50 in the assay on Malme-3M [2] is > 100 µg/mL; with A549 [28], 42 µg/mL (≈ 64.3 µM); in the assay with HT-29 [29], 94 µg/mL (≈ 144 µM); with SK-MEL-5 [3], > 100 µg/mL; in the assay with MCF7 [30], 46 µg/mL (≈ 70.4 µM).
For the compound `C[C@@]12CCC3[C@](C)(CC[C@]4(C)C5(CC[C@@]34C)OCCO5)[C@@]1(C)Cc1nc3c(nc1C2)C[C@@]1(C)[C@@](C)(CCC2[C@]1(C)CC[C@]1(C)C4(CC[C@@]21C)OCCO4)C3` (stereo partly specified), the EC50 in the assay on SK-MEL-5 [31] was found to be 17 µg/mL (≈ 22.9 µM); in the assay with A549 [32], 33 µg/mL (≈ 44.5 µM); with Malme-3M [33], 31 µg/mL (≈ 41.8 µM); in the assay on HT-29 [34], 39 µg/mL (≈ 52.6 µM); with MCF7 [35], 37 µg/mL (≈ 49.9 µM).
As for `C[C@@H]1[C@]2(O[C@H]3C=C4C5CC[C@@]6(C)Cc7nc8c(nc7C[C@]6(C)[C@@]5(C)C[C@@H](O)[C@]4(C)[C@]31O)C[C@]1(C)CCC3C4=CC[C@@H]5[C@H](C)[C@@]6(OC[C@]45C(=O)C[C@@H]3[C@@]1(C)C8)OC(C)(C)C[C@H]6O)O[C@](C)(CO)C[C@H]2O` (stereo partly specified) [CEPHALOSATIN], the EC50 in the assay with P388 was 0.001 ng/mL (≈ 1.05e-06 µM).
